≈ marks a conversion by molar mass, not a printed value. Like-named read-outs stand apart in the source and are kept apart here.
Key:
[1] = tested on: S. aureus; test: Minimal inhibitory concentration (MIC), broth microdilution; type: cell-based, Staphylococcus aureus
From the text: (§1) Bacterial strains and growth conditions and persister isolation: methicillin-resistant S. aureus (MRSA) strain MW2 BAA-1707, vancomycin-resistant S. aureus strain VRS 1, 11 clinical S. aureus isolates, 8 clinical Enterococcus faecium isolates, Klebsiella pneumoniae WGLW2 (BEI Resources, Manassas, Va., USA), Acinetobacter baumannii ATCC 17978, Pseudomonas aeruginosa PA14, and Enterobacter aerogenes ATCC 13048 were used to test antimicrobial activity (See Table 1a). S. aureus and E. faecium strains were grown in tryptic soy broth (TSB) (BD, Franklin Lakes, N.J., USA) or brain-heart infusion (BHI) broth (BD, Franklin Lakes, N.J., USA), respectively at 37° C. at 225 rpm. K. pneumoniae, A. baumannii, P. aeruginosa, and E. aerogenes were grown in Luria Bertani (LB) broth (BD, Franklin Lakes, N.J., USA).
(§2) To test the bacterial MICs for compounds described herein, the total volume in each well was 100 μl of test compounds and bacterial cells in MH broth. […] The bacterial concentration was adjusted to an initial OD600 of 0.03. After incubation at 35° C. for 18 hrs, the absorbance was measured at 595 nm in accordance with CLSI document M07-A8. The MICs of antibiotics were determined by the standard microdilution method recommended by the Clinical and Laboratory Standards Institute.

[2] = tested on: Candida glabrata; test: MIC against fungal cultures; type: cell-based; details: Nakaseomyces glabratus, read-out: Drug MIC
[3] = tested on: C. neoformans; test: MIC against fungal cultures; type: cell-based; details: Cryptococcus neoformans, read-out: Drug MIC
Description: (§3) The cells were harvested by centrifugation at 4000 RPM for 5 minutes and washed with PBS; the cell pellets were resuspended in RPMI 1640 medium. The cell count was calculated with a hemocytometer and adjusted to be between 5.0×10^4 to 2.5×10^6 cells/ml. A tested compound was prepared and added to RPMI 1640 medium at 2× the final concentration. […] For C. albicans, OD595 was read after incubating the plate at 35° C. for 24 hrs. For KN99α, OD595 was read after incubating the plate at 35° C. for 70 hrs in accordance with CLSI document M27-A2.

[4] = tested on: Candida tropicalis; test: MIC against fungal cultures; type: cell-based
Description: as §3

[5] = tested on: Salmonella typhimurium strains TA 1535 and TA 1538; details: With S9; 5 μg/plate
Description: The Ames test was conducted using histidine auxotroph Salmonella typhimurium strains TA 1535 and TA 1538. To test mutagenic potential of the synthetic retinoids themselves and their metabolic products, the assay was conducted both with and without rat liver S9 fraction (Moltox, Boone, N.C., USA). Briefly, 100 μl of bacterial overnight cultures was added into 500 μl of phosphate buffer containing a range of amounts of the retinoids dissolved in 10 μl DMSO and with or without 4% S9. After incubation at 37° C. for 1 h, the samples were added into 2 ml of soft agar including 0.5 mM of histidine/biotin, mixed, and poured onto minimal glucose agar plates. The plates were incubated at 37° C. for 48 h, and the revertant colonies were counted. 10 μl DMSO was used as a negative control. […] 5 μg/plate 2-aminoanthracene was used as a positive control for both strains in the metabolic activation system. The test was performed in triplicate.

[6] = tested on: E. faecium; test: MIC, broth microdilution; type: cell-based, Enterococcus faecium; details: Enterococcus faecium, read-out: Drug MIC
From the text: as §1, §2

[7] = ATCC90030, Candida glabrata ATCC 90030 (Reference)
[8] = Candida glabrata clinical isolate 6891
[9] = Candida glabrata clinical isolate 6922
[10] = Candida glabrata clinical isolate 6927
[11] = Candida glabrata clinical isolate 6930
[12] = Candida glabrata clinical isolate 6931
[13] = Candida glabrata clinical isolate 6932
[14] = Candida glabrata clinical isolate 6943
[15] = Candida glabrata clinical isolate 7110
[16] = Candida glabrata clinical isolate 7117
[17] = Candida glabrata clinical isolate 7221
[18] = Candida glabrata clinical isolate 7255
[19] = Candida glabrata clinical isolate 7815
[20] = Candida glabrata clinical isolate 7869
[21] = Candida glabrata clinical isolate 7871
[22] = Candida glabrata clinical isolate 8066
[23] = C. neoformans clinical isolate 41291
[24] = C. neoformans clinical isolate 41292
[25] = C. neoformans clinical isolate 41294
[26] = C. neoformans clinical isolate 41295
[27] = C. neoformans clinical isolate 41296
[28] = C. neoformans clinical isolate 41297
[29] = C. neoformans clinical isolate 41298
[30] = C. neoformans clinical isolate 41299
[31] = C. neoformans clinical isolate 41300
[32] = C. neoformans clinical isolate BF113
[33] = C. neoformans clinical isolate BF114
[34] = ATCC13803, Candida tropicalis ATCC 13803 (Reference), read-out: Drug MIC
[35] = Candida tropicalis clinical isolate 11, read-out: Drug MIC
[36] = Candida tropicalis clinical isolate 85-S, read-out: Drug MIC
[37] = Candida tropicalis clinical isolate 172-S, read-out: Drug MIC

Compound “Defensin 1: a CAMP (cationic antimicrobial peptide) secreted by the host immune system” has an MIC ([1]; S. aureus MW2 mutant SP1-8 (graS)) of 8 µg/mL, an MIC ([1]; S. aureus MW2 mutant SP1-48 (graS, manA)) of 8 µg/mL and an MIC ([1]; S. aureus MW2 mutant SP1-74 (graS, manA, MW2474)) of 8 µg/mL. The MIC ([1]; S. aureus MW2 mutant SP1-100 (graS, manA, MW2474)) was 8 µg/mL, the MIC ([1]; S. aureus MW2 mutant SP2-13 (yjbH)) was 16 µg/mL and the MIC ([1]; S. aureus MW2 mutant SP2-52 (yjbH, dltB)) was 8 µg/mL. The MIC ([1]; S. aureus MW2 mutant SP2-59 (yjbH, dltB, manA)) was 8 µg/mL, the MIC ([1]; S. aureus MW2 mutant SP2-65 (yjbH, dltB, manA, MW1685)) was 8 µg/mL and the MIC ([1]; S. aureus MW2 mutant SP2-100 (yjbH dltB, manA, MW1685)) was 8 µg/mL. The MIC ([1]; S. aureus MW2 serial passage culture SP1-1 (no mutated gene)) was 16 µg/mL and the MIC ([1]; S. aureus MW2 serial passage culture SP2-1 (no mutated gene)) was 16 µg/mL.
Compound `OC(Cn1cncn1)(Cn1cncn1)c1ccc(F)cc1F` [Fluconazole] has an MIC [2, 7] of 8 µg/mL (≈ 26.1 µM), an MIC [2, 8] of 2 µg/mL (≈ 6.53 µM) and an MIC [2, 9] of 2 µg/mL (≈ 6.53 µM). It also gave an MIC [2, 10] of 2 µg/mL (≈ 6.53 µM), an MIC [2, 11] of 1 µg/mL (≈ 3.27 µM) and an MIC [2, 12] of 0.5 µg/mL (≈ 1.63 µM). It also gave an MIC [2, 13] of 0.5 µg/mL (≈ 1.63 µM), an MIC [2, 14] of 8 µg/mL (≈ 26.1 µM) and an MIC [2, 15] of 1 µg/mL (≈ 3.27 µM). It also gave an MIC [2, 16] of 2 µg/mL (≈ 6.53 µM), an MIC [2, 17] of 1 µg/mL (≈ 3.27 µM) and an MIC [2, 18] of 2 µg/mL (≈ 6.53 µM). It also gave an MIC [2, 19] of 2 µg/mL (≈ 6.53 µM), an MIC [2, 20] of 4 µg/mL (≈ 13.1 µM) and an MIC [2, 21] of 2 µg/mL (≈ 6.53 µM). It also gave an MIC [2, 22] of 2 µg/mL (≈ 6.53 µM), an MIC [3, 23] of 8 µg/mL (≈ 26.1 µM) and an MIC [3, 24] of 64 µg/mL (≈ 209 µM). The MIC [3, 25] was 8 µg/mL (≈ 26.1 µM), the MIC [3, 26] was 64 µg/mL (≈ 209 µM) and the MIC [3, 27] was greater than 64 µg/mL. The MIC [3, 28] was 8 µg/mL (≈ 26.1 µM), the MIC [3, 29] was 8 µg/mL (≈ 26.1 µM) and the MIC [3, 30] was 4 µg/mL (≈ 13.1 µM). It also gave an MIC [3, 31] greater than 64 µg/mL, an MIC [3, 32] of 16 µg/mL (≈ 52.2 µM) and an MIC [3, 33] of 64 µg/mL (≈ 209 µM). For the same compound, the MIC [4, 34] was 8 µg/mL (≈ 26.1 µM), the MIC [4, 35] was 0.5 µg/mL (≈ 1.63 µM) and the MIC [4, 36] was 1 µg/mL (≈ 3.27 µM). The MIC [4, 37] was 2 µg/mL (≈ 6.53 µM).
`Nc1ccc2cc3ccccc3cc2c1` [2AA, 2-Aminoanthracene] was tested, and the “Number of revertants (T1535)” value [5] was 263 ± 15 and the “Number of revertants (T1538)” value [5] was 2568 ± 108.
`O=C(N[C@H](CO)[C@H](O)c1ccc([N+](=O)[O-])cc1)C(Cl)Cl` [chloramphenicol] was tested, and the MIC ([6]; Enterococcus faecium clinical isolate C68 (Table 6)) was 16 µg/mL (≈ 49.5 µM), the MIC ([6]; Enterococcus faecium clinical isolate D14 (Table 6)) was 8 µg/mL (≈ 24.8 µM) and the MIC ([6]; Enterococcus faecium clinical isolate D24 (Table 6)) was 4 µg/mL (≈ 12.4 µM). The MIC ([6]; Enterococcus faecium clinical isolate D25 (Table 6)) was 8 µg/mL (≈ 24.8 µM), the MIC ([6]; Enterococcus faecium clinical isolate D29 (Table 6)) was 64 µg/mL (≈ 198 µM) and the MIC ([6]; Enterococcus faecium clinical isolate W312 (Table 6)) was 8 µg/mL (≈ 24.8 µM). For the same compound, the MIC ([6]; Enterococcus faecium clinical isolate WC176 (Table 6)) was 16 µg/mL (≈ 49.5 µM).
With `C[C@@H]1[C@H](O)[C@@H](C)/C=C/C=C/C=C/C=C/C=C/C=C/C=C/[C@H](O[C@@H]2O[C@H](C)[C@@H](O)[C@H](N)[C@@H]2O)C[C@@H]2O[C@](O)(C[C@@H](O)C[C@@H](O)[C@H](O)CC[C@@H](O)C[C@@H](O)CC(=O)O[C@H]1C)C[C@H](O)[C@H]2C(=O)O` [Amphotericin B] the MIC [2, 7] was 1 µg/mL (≈ 1.08 µM), the MIC [2, 8] was 0.5 µg/mL (≈ 0.541 µM) and the MIC [2, 9] was 0.5 µg/mL (≈ 0.541 µM). The MIC [2, 10] was 1 µg/mL (≈ 1.08 µM), the MIC [2, 11] was 1 µg/mL (≈ 1.08 µM) and the MIC [2, 12] was 0.5 µg/mL (≈ 0.541 µM). It also gave an MIC [2, 13] of 0.5 µg/mL (≈ 0.541 µM), an MIC [2, 14] of 1 µg/mL (≈ 1.08 µM) and an MIC [2, 15] of 0.5 µg/mL (≈ 0.541 µM). The MIC [2, 16] was 0.5 µg/mL (≈ 0.541 µM), the MIC [2, 17] was 0.5 µg/mL (≈ 0.541 µM) and the MIC [2, 18] was 1 µg/mL (≈ 1.08 µM). It also gave an MIC [2, 19] of 0.5 µg/mL (≈ 0.541 µM), an MIC [2, 20] of 1 µg/mL (≈ 1.08 µM) and an MIC [2, 21] of 1 µg/mL (≈ 1.08 µM). The MIC [2, 22] was 0.5 µg/mL (≈ 0.541 µM), the MIC [3, 23] was 0.125 µg/mL (≈ 0.135 µM) and the MIC [3, 24] was 0.125 µg/mL (≈ 0.135 µM). It also gave an MIC [3, 25] of 0.125 µg/mL (≈ 0.135 µM), an MIC [3, 26] of 0.125 µg/mL (≈ 0.135 µM) and an MIC [3, 27] of 0.125 µg/mL (≈ 0.135 µM). It also gave an MIC [3, 28] of 0.125 µg/mL (≈ 0.135 µM), an MIC [3, 29] of 0.125 µg/mL (≈ 0.135 µM) and an MIC [3, 30] of 0.125 µg/mL (≈ 0.135 µM). For the same compound, the MIC [3, 31] was 0.125 µg/mL (≈ 0.135 µM), the MIC [3, 32] was 0.125 µg/mL (≈ 0.135 µM) and the MIC [3, 33] was less than 0.0625 µg/mL. It also gave an MIC [4, 34] of 1 µg/mL (≈ 1.08 µM), an MIC [4, 35] of 0.5 µg/mL (≈ 0.541 µM) and an MIC [4, 36] of 0.125 µg/mL (≈ 0.135 µM). The MIC [4, 37] was 0.5 µg/mL (≈ 0.541 µM).
